Results: patent US20100009956A1, “NOVEL SUBSTITUTED PYRIMIDINES AS CYSTEINE PROTEASE INHIBITORS” (Glaxo Group Limited , a corporation, priority 2006, published 2010)
Structures can show the parent of a compound that is named as a salt. Where two headings read alike, the source gives them in different places.

What was measured:
Assay type in all cases: biochemical
[1] = biological target: Falcipain-2 (Plasmodium falciparum, UniProt Q8I6U4); assay: Falcipain-2 enzymatic assay (assay 1)
Description: (§1) Assay 1) Determination of Falcipain-2, Falcipain-3, Vivapain-2, Cathepsin K Cathepsin S, Cathepsin L, and Cathepsin B Proteolytic Catalytic Activity
(§2) Assays for Falcipain-2, Falcipain-3, and Vivapain-2 are carried out with parasitic recombinant enzymes. Cathepsins K, S, L, and B are carried out with human recombinant enzymes. Standard assay conditions for the determination of kinetic constants used a fluorogenic peptide substrate, typically H-D-VLR-AFC (Falcipain-2, Falcipain-3, Vivapain-2), Z-FR-AFC (Cathepsin K, L, B), or KQKLR-AMC (Cathepsin S) and are determined in 100 mM sodium acetate, pH 5.5, containing 10 mM DTT and 0.5 mM CHAPS (Falcipain-2, Falcipain-3, Vivapain-2), and 100 mM sodium acetate, pH 5.5, containing 5 mM L-cysteine, 1 mM CHAPS and 5 mM EDTA (Cathepsin K, L, B), or 50 mM MES, pH 6.5, containing 0.5 mM CHAPS, 10 mM L-CYS, 5 mM EDTA (Cathepsin S). Stock substrate solutions are prepared at 20 mM in DMSO. The activity assays contained 30 uM substrate (Falcipain-2, Falcipain-3, Vivapain-2), 20 uM substrate (Cathepsin K), 25 uM substrate (Cathepsin B), 5 uM substrate (Cathepsin L), and 30 uM substrate (Cathepsin S). All assays contained 1% DMSO. […] All assays are conducted at ambient temperature as end point assays being quenched after 60 minutes with the exception of Cathepsin S at 90 minutes, with 16.6 uM E-64 in 1% DMSO. Product formation (AFC or AMC) is determined from fluorescence (excitation at 405 nm; emission at 530 nm, AFC, or excitation at 360 nm; emission at 460 nm, AMC) monitored with a LJL Aquest (Molecular Devices) fluorescent plate reader. In the case of kinetic reads (used in mechanism of action studies), the reaction is not quenched but is read in the plate reader every 3 minutes for approximately 90 minutes. In addition, the mechanism of action studies for Falcipain-2 utilize Z-LR-AMC as the substrate. Product formation is determined from the fluorescence of AMC, measured with a LJL Acquest (Molecular Devices) fluorescent plate reader (excitation at 360 nm; emission at 460 nm).
(§3) Potential inhibitors are evaluated using the quenched read (endpoint) method. Assays are carried out in the presence of variable concentrations of test compound. Reactions are initiated by addition of enzyme and substrate to wells containing inhibitor stamped in 100% DMSO. For endpoint assays, the reaction is quenched with the addition of E64. Dose response data is fit to an IC50 curve with preset fitting tools according to equation 1:
(§4) y=a+(b−a)/(1+(10^x/10^c)^d) (1)
(§5) where y is the response at a particular inhibitor concentration x, a is the minimum response value, b is the maximum response value, c is the IC50, and d is the slope of the IC50 curve. Assuming the compound is a competitive inhibitor, the apparent KI can be calculated from IC50, as shown in equation 2: […]

[2] = biological target: Falcipain-3 (Plasmodium falciparum, UniProt Q8IIL0); assay: Falcipain-3 enzymatic assay (assay 1)
Chain of Falcipain-3 (Q8IIL0 243-492): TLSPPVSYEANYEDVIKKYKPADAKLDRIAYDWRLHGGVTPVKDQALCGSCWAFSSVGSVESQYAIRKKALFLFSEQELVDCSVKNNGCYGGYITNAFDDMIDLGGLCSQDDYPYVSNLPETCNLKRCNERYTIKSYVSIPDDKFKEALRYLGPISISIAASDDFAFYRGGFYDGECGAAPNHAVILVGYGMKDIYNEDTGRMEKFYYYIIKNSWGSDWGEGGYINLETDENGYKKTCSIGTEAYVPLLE
Description: as §1, §2, §3, §4, §5

[3] = biological target: Cathepsin S (Homo sapiens, UniProt P25774); assay: Cathepsin S enzymatic assay (assay 1); settings: human recombinant enzyme, KQKLR-AMC substrate, pH 6.5
Chain of Cathepsin S (P25774 115-331): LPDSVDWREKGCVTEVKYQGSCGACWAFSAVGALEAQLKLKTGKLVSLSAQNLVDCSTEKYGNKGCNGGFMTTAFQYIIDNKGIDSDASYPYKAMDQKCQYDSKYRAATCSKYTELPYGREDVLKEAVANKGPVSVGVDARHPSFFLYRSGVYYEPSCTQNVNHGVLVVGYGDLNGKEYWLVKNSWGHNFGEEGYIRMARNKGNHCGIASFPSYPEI
Description: as §1, §2, §3, §4, §5

[4] = biological target: T1, Cathepsin K (Homo sapiens, UniProt P43235); assay: Cathepsin K enzymatic assay (assay 1); settings: human recombinant enzyme, Z-FR-AFC substrate, pH 5.5
T1 sequence (P43235 115-329): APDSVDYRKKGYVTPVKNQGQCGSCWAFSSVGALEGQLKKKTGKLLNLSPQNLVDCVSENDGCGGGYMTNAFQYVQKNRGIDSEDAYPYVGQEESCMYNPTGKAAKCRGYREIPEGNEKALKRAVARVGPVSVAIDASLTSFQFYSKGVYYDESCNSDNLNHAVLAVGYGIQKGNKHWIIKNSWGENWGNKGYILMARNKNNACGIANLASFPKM
Description: as §1, §2, §3, §4, §5

[5] = parasitic recombinant enzyme, H-D-VLR-AFC substrate, pH 5.5, endpoint read, read-out: Falcipain-3 IC50

Chain of Falcipain-2 (Q8I6U4 244-484): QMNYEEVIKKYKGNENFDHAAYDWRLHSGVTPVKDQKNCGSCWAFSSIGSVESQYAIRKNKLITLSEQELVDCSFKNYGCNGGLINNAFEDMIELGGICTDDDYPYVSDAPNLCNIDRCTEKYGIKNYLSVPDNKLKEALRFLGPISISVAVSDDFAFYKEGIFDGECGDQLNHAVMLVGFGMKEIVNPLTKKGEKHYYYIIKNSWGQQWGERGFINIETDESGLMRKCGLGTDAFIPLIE

| SMILES | IC50 [1] [nM] | IC50 [2] [nM] | IC50 [3] [nM] | IC50 [2, 5] [nM] | IC50 [4] [nM] |
| --- | --- | --- | --- | --- | --- |
| CN(Cc1ccc(C(=O)NN(c2nc(C#N)ncc2Cl)C2CCCC2)cc1)C(C)(C)Cc1ccccc1 [Example 71, N′-(5-chloro-2-cyano-4-pyrimidinyl)-N′-cyclopentyl-4-{[(1,1-dimethyl-2-phenylethyl)(methyl)amino]methyl}benzohydrazide trifluoroacetate] | < 1 | 2.5 to 15 | < 200 | – | – |
| CC(=O)N1CCC(N(NC(=O)c2ccc(CN3CCC(N4CCN(C)CC4)CC3)cc2)c2nc(C#N)ncc2Br)CC1 [Example 38, N′-(1-acetyl-4-piperidinyl)-N′-(5-bromo-2-cyano-4-pyrimidinyl)-4-{[4-(4-methyl-1-piperazinyl)-1-piperidinyl]methyl}benzohydrazide trifluoroacetate] | < 1 | – | < 200 | 2.5 to 15 | – |
| CCCCCCN(C)Cc1ccc(C(=O)NN(c2nc(C#N)ncc2Cl)C2CCCC2)cc1 [Example 56, N′-(5-chloro-2-cyano-4-pyrimidinyl)-N′-cyclopentyl-4-{([hexyl(methyl)amino]methyl}benzohydrazide trifluoroacetate] | < 1 | 2.5 to 15 | < 200 | – | – |
| CN(CCC1OCCO1)Cc1ccc(C(=O)NN(c2nc(C#N)ncc2Cl)C2CCCC2)cc1 [Example 61, N′-(5-chloro-2-cyano-4-pyrimidinyl)-N′-cyclopentyl-4-{[[2-(1,3-dioxolan-2-yl)ethyl](methyl)amino]methyl}benzohydrazide trifluoroacetate] | < 1 | 2.5 to 15 | < 200 | – | – |
| CCN(Cc1ccc(C(=O)NN(c2nc(C#N)ncc2Cl)C2CCCC2)cc1)C1CCCCC1 [Example 69, N′-(5-chloro-2-cyano-4-pyrimidinyl)-4{[cyclohexyl(ethyl)amino]methyl}-N′-cyclopentylbenzohydrazide trifluoroacetate] | < 1 | 2.5 to 15 | < 200 | – | – |
| CN(Cc1ccc(C(=O)NN(c2nc(C#N)ncc2Cl)C2CCCC2)cc1)C1CCC2(CC1)OCC(C)(C)CO2 [Example 65, N′-(5-chloro-2-cyano-4-pyrimidinyl)-N′-cyclopentyl-4-{[(3,3-dimethyl-1,5-dioxaspiro[5.5]undec-9-yl)(methyl)amino]methyl}benzohydrazide trifluoroacetate] | 1 to 2.5 | 2.5 to 15 | < 200 | – | – |
| CN(Cc1ccc(C(=O)NN(c2nc(C#N)ncc2Cl)C2CCCC2)cc1)C1CCCCC1 [Example 53, N′-(5-chloro-2-cyano-4-pyrimidinyl)-4-{[cyclohexyl(methyl)amino]methyl}-N′-cyclopentylbenzohydrazide trifluoroacetate] | < 1 | 2.5 to 15 | < 200 | – | – |
| CN(CCc1ccccc1)Cc1ccc(C(=O)NN(c2nc(C#N)ncc2Cl)C2CCCC2)cc1 [Example 62, N′-(5-chloro-2-cyano-4-pyrimidinyl)-N′-cyclopentyl-4-{[methyl(2-phenylethyl)amino]methyl}benzohydrazide trifluoroacetate] | < 1 | 2.5 to 15 | < 200 | – | – |
| CN1CCC(CN2CCN(Cc3cccc(C(=O)NN(c4nc(C#N)ncc4Br)C4CCCCC4)c3)CC2)CC1 [Example 28, N′-(5-bromo-2-cyano-4-pyrimidinyl)-N′-cyclohexyl-3-({4-[(1-methyl-4-piperidinyl)methyl]-1-piperazinyl}methyl)benzohydrazide trifluoroacetate] | < 1 | 2.5 to 15 | < 1000 | – | – |
| CN(CCC(O)c1ccccc1)Cc1ccc(C(=O)NN(c2nc(C#N)ncc2Cl)C2CCCC2)cc1 (stereo not drawn) [Example 59, N′-(5-chloro-2-cyano-4-pyrimidinyl)-N′-cyclopentyl-4-{[(3-hydroxy-3-phenylpropyl)(methyl)amino]methyl}benzohydrazide trifluoroacetate] | < 1 | 1 to 2.5 | < 200 | – | – |
| N#Cc1ncc(Cl)c(N(NC(=O)c2ccc(CN3CCC(O)CC3)cc2)C2CCCC2)n1 [Example 70, N′-(5-chloro-2-cyano-4-pyrimidinyl)-N′-cyclopentyl-4-[(4-hydroxy-1-piperidinyl)methyl]benzohydrazide trifluoroacetate] | < 1 | 2.5 to 15 | < 200 | – | – |
| CCCCN(C)Cc1ccc(C(=O)NN(c2nc(C#N)ncc2Cl)C2CCCC2)cc1 [Example 57, 4-{[butyl(methyl)amino]methyl}-N′-(5-chloro-2-cyano-4-pyrimidinyl)-N′-cyclopentylbenzohydrazide trifluoroacetate] | < 1 | 2.5 to 15 | < 200 | – | – |
| CCN(CCCNC(=O)OC(C)(C)C)Cc1ccc(C(=O)NN(c2nc(C#N)ncc2Cl)C2CCCC2)cc1 [Example 81, 1,1-dimethylethyl{3-[[(4-{[2-(5-chloro-2-cyano-4-pyrimidinyl)-2-cyclopentylhydrazino]carbonyl}phenyl)methyl](ethyl)amino]propyl}carbamate] | < 1 | – | < 200 | 2.5 to 15 | – |
| CN1CCN(c2ccc(C(=O)NN(c3nc(C#N)ncc3Cl)C3CCCC3)cc2)CC1 [Example 52, N′-(5-chloro-2-cyano-4-pyrimidinyl)-N′-cyclopentyl-4-(4-methyl-1-piperazinyl)benzohydrazide trifluoroacetate] | < 1 | 2.5 to 15 | < 200 | – | – |
| CCN(CC)Cc1ccc(C(=O)NN(c2nc(C#N)ncc2Cl)C2CCCC2)cc1 [Example 66, N′-(5-chloro-2-cyano-4-pyrimidinyl)-N′-cyclopentyl-4-[(diethylamino)methyl]benzohydrazide trifluoroacetate] | < 1 | 2.5 to 15 | < 200 | – | – |
| CCCN(C)Cc1ccc(C(=O)NN(c2nc(C#N)ncc2Cl)C2CCCC2)cc1 [Example 55, N′-(5-chloro-2-cyano-4-pyrimidinyl)-N′-cyclopentyl-4-{[methyl(propyl)amino]methyl}benzohydrazide trifluoroacetate] | < 1 | 2.5 to 15 | < 200 | – | – |
| CN(CC(=O)N(C)C)Cc1ccc(C(=O)NN(c2nc(C#N)ncc2Cl)C2CCCC2)cc1 [Example 60, N^2-[(4-{[2-(5-chloro-2-cyano-4-pyrimidinyl)-2-cyclopentylhydrazino]carbonyl}phenyl)methyl]-N^1,N^1,N^2-trimethylglycinamide trifluoroacetate] | < 1 | 2.5 to 15 | < 200 | – | – |
| CN(C)Cc1ccc(C(=O)NN(c2nc(C#N)ncc2Cl)C2CCCC2)cc1 [Example 54, N′-(5-chloro-2-cyano-4-pyrimidinyl)-N′-cyclopentyl-4-[(dimethylamino)methyl]benzohydrazide trifluoroacetate] | < 1 | 2.5 to 15 | < 200 | – | – |
| CC(C)N(Cc1ccc(C(=O)NN(c2nc(C#N)ncc2Cl)C2CCCC2)cc1)C(C)C [Example 72, 4-{[bis(1-methylethyl)amino]methyl}-N′-(5-chloro-2-cyano-4-pyrimidinyl)-N′-cyclopentylbenzohydrazide trifluoroacetate] | < 1 | 2.5 to 15 | < 200 | – | – |
| CN1CCC(CN2CCN(Cc3ccc(C(=O)NN(c4nc(C#N)ncc4Br)C4CCOCC4)cc3)CC2)CC1 [Example 30, N′-(5—Bromo-2-cyano-4-pyrimidinyl)-4-({4-[(1-methyl-4-piperidinyl)methyl]-1-piperazinyl}methyl)-N′-(tetrahydro-2H-pyran-4-yl)benzohydrazide trifluoroacetate] | 1 to 2.5 | 2.5 to 15 | – | – | < 17 |
